Assay results: paper PMC10470521, “Structural basis of a bi-functional malonyl-CoA reductase (MCR) from the photosynthetic green non-sulfur bacterium Roseiflexus castenholzii” (mBio, 2023)

Key:
full-length RfxMCR [1] = target: T1, full-length RfxMCR (Roseiflexus castenholzii, UniProt A7NN59, R799A); assay: NADPH oxidation at […] nm; format: biochemical; conditions: 0.4 mM NADPH, 5 mM MgCl2, 100 mM Tris-HCl pH 8.0, 150 mM NaCl, 50°C; apparent; overall two-step reduction; extra domain
T1 construct: gene Rcas_2929; full length Met1-Val1229, C-terminal His6 tag (pET20b), E. coli BL21(DE3); homodimer ~270 kDa

full-length RfxMCR [2] = target: T2, full-length RfxMCR (Roseiflexus castenholzii, UniProt A7NN59, S731A); assay: NADPH oxidation at […] nm; format: biochemical; conditions: 0.4 mM NADPH, 5 mM MgCl2, 100 mM Tris-HCl pH 8.0, 150 mM NaCl, 50°C; apparent; overall two-step reduction; SDR3 site
T2 construct: gene Rcas_2929; full length Met1-Val1229, C-terminal His6 tag (pET20b), E. coli BL21(DE3); homodimer ~270 kDa
T2 sequence (A7NN59 entry or part of it S731A): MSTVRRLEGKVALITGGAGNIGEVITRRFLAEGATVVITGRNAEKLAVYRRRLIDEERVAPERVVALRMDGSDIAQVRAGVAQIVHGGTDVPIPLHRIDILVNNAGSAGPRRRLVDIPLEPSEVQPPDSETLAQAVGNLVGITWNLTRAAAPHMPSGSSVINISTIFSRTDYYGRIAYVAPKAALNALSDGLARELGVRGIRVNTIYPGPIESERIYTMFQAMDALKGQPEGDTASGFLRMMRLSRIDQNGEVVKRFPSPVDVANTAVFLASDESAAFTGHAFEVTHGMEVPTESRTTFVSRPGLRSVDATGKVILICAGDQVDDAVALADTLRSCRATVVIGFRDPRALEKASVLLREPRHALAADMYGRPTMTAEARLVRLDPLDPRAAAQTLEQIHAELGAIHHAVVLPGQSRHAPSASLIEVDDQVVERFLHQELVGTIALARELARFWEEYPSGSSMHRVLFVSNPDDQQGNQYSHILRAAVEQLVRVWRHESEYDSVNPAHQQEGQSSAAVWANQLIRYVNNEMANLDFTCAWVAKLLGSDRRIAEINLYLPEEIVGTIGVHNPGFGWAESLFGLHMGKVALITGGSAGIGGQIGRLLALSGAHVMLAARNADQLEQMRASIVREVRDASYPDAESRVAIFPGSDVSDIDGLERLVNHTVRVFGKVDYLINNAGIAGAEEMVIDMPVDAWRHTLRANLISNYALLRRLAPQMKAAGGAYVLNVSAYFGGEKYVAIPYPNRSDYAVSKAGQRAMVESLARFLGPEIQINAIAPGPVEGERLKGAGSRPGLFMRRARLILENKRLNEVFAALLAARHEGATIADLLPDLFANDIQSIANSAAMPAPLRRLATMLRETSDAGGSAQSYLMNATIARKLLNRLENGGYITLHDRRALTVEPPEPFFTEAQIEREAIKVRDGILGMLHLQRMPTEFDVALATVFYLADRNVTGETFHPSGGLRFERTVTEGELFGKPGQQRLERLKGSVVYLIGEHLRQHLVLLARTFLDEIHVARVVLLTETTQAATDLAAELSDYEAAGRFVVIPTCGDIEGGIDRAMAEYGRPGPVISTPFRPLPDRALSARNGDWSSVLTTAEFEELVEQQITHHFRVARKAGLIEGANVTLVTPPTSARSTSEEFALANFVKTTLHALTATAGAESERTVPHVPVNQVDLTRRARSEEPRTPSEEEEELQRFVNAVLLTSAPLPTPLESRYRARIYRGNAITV

full-length RfxMCR [3] = target: T3, full-length RfxMCR (Roseiflexus castenholzii, UniProt A7NN59, Y749A); assay: NADPH oxidation at […] nm; format: biochemical; conditions: 0.4 mM NADPH, 5 mM MgCl2, 100 mM Tris-HCl pH 8.0, 150 mM NaCl, 50°C; apparent; overall two-step reduction
T3 construct: gene Rcas_2929; full length Met1-Val1229, C-terminal His6 tag (pET20b), E. coli BL21(DE3); homodimer ~270 kDa

full-length RfxMCR [4] = target: T4, full-length RfxMCR (Roseiflexus castenholzii, UniProt A7NN59, Y178A); assay: NADPH oxidation at […] nm; format: biochemical; conditions: 0.4 mM NADPH, 5 mM MgCl2, 100 mM Tris-HCl pH 8.0, 150 mM NaCl, 50°C; apparent; overall two-step reduction
T4 construct: gene Rcas_2929; full length Met1-Val1229, C-terminal His6 tag (pET20b), E. coli BL21(DE3); homodimer ~270 kDa
T4 sequence (A7NN59 entry or part of it Y178A): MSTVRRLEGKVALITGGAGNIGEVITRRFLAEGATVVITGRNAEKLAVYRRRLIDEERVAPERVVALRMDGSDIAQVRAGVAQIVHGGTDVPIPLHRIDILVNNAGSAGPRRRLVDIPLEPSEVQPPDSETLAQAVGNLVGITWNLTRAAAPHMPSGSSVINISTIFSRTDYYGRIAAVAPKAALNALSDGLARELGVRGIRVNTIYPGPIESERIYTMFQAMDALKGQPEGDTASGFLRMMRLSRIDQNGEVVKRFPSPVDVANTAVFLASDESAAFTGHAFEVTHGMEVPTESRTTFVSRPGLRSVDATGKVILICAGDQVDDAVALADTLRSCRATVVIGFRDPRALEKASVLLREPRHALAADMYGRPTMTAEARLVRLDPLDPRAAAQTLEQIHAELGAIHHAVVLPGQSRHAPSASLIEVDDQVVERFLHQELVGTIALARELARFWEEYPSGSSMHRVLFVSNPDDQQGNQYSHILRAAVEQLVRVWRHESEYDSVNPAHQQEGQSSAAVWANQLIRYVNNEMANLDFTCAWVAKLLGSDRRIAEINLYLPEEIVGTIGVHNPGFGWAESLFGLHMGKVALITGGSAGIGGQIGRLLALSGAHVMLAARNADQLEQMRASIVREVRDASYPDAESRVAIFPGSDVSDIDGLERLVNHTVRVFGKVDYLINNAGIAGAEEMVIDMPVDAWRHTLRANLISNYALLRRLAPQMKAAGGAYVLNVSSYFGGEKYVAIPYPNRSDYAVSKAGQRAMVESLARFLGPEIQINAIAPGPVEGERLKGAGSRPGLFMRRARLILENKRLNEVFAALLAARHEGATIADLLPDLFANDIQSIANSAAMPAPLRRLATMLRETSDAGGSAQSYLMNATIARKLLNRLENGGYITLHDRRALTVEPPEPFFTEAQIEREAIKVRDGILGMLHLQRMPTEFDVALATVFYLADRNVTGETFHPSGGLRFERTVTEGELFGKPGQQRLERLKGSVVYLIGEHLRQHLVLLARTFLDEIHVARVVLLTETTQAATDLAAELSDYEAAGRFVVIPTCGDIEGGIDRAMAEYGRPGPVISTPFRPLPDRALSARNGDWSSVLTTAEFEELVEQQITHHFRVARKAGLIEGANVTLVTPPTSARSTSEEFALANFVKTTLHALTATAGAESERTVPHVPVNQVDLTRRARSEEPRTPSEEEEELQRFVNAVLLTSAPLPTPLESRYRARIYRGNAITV

full-length RfxMCR [5] = target: T5, full-length RfxMCR (Roseiflexus castenholzii, UniProt A7NN59, K753A); assay: NADPH oxidation at […] nm; format: biochemical; conditions: 0.4 mM NADPH, 5 mM MgCl2, 100 mM Tris-HCl pH 8.0, 150 mM NaCl, 50°C; apparent; overall two-step reduction
T5 construct: gene Rcas_2929; full length Met1-Val1229, C-terminal His6 tag (pET20b), E. coli BL21(DE3); homodimer ~270 kDa

full-length RfxMCR [6] = target: T6, full-length RfxMCR (Roseiflexus castenholzii, UniProt A7NN59, L795A); assay: NADPH oxidation at […] nm; format: biochemical; conditions: 0.4 mM NADPH, 5 mM MgCl2, 100 mM Tris-HCl pH 8.0, 150 mM NaCl, 50°C; apparent; overall two-step reduction
T6 construct: gene Rcas_2929; full length Met1-Val1229, C-terminal His6 tag (pET20b), E. coli BL21(DE3); homodimer ~270 kDa
T6 sequence (A7NN59 entry or part of it L795A): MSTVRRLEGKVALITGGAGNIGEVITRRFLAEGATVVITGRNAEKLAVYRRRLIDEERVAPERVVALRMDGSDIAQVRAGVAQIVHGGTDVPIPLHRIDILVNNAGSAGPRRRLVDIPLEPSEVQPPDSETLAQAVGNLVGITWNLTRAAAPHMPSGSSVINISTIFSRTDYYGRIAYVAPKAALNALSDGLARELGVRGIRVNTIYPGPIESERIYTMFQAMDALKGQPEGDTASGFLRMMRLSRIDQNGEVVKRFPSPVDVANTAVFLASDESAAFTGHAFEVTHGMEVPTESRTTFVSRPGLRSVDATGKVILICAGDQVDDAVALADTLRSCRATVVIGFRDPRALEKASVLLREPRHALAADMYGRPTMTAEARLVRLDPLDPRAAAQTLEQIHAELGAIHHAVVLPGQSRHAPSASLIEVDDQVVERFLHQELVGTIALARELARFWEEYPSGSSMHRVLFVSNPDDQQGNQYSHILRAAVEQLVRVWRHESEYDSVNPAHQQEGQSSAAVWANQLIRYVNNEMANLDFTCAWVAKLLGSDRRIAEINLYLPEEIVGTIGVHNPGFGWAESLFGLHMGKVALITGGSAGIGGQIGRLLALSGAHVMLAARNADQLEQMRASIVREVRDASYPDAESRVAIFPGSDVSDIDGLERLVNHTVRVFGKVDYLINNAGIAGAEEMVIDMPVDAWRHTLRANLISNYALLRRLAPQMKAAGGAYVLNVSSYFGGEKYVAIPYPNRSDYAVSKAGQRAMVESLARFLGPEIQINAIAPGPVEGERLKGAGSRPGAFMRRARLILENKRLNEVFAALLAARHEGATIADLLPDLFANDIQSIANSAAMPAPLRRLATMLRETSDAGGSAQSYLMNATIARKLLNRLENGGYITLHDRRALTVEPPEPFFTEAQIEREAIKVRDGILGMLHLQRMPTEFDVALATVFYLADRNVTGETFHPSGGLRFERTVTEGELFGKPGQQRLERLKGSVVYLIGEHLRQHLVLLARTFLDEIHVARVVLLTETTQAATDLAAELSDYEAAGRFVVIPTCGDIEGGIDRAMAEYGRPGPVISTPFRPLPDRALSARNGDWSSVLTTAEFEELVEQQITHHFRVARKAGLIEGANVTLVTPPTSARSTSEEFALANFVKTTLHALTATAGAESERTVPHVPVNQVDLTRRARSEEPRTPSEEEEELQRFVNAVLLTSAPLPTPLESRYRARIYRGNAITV

full-length RfxMCR [7] = target: T7, full-length RfxMCR (Roseiflexus castenholzii, UniProt A7NN59, R785A); assay: NADPH oxidation at […] nm; format: biochemical; conditions: 0.4 mM NADPH, 5 mM MgCl2, 100 mM Tris-HCl pH 8.0, 150 mM NaCl, 50°C; apparent; overall two-step reduction; extra domain
T7 construct: gene Rcas_2929; full length Met1-Val1229, C-terminal His6 tag (pET20b), E. coli BL21(DE3); homodimer ~270 kDa

full-length RfxMCR [8] = target: T8, full-length RfxMCR (Roseiflexus castenholzii, UniProt A7NN59, R746A); assay: NADPH oxidation at […] nm; format: biochemical; conditions: 0.4 mM NADPH, 5 mM MgCl2, 100 mM Tris-HCl pH 8.0, 150 mM NaCl, 50°C; apparent; overall two-step reduction; SDR3 site
T8 construct: gene Rcas_2929; full length Met1-Val1229, C-terminal His6 tag (pET20b), E. coli BL21(DE3); homodimer ~270 kDa

full-length RfxMCR [9] = target: T9, full-length RfxMCR (Roseiflexus castenholzii, UniProt A7NN59, K182A); assay: NADPH oxidation at […] nm; format: biochemical; conditions: 0.4 mM NADPH, 5 mM MgCl2, 100 mM Tris-HCl pH 8.0, 150 mM NaCl, 50°C; apparent; overall two-step reduction
T9 construct: gene Rcas_2929; full length Met1-Val1229, C-terminal His6 tag (pET20b), E. coli BL21(DE3); homodimer ~270 kDa

full-length RfxMCR [10] = target: T10, full-length RfxMCR (Roseiflexus castenholzii, UniProt A7NN59, T165A); assay: NADPH oxidation at […] nm; format: biochemical; conditions: 0.4 mM NADPH, 5 mM MgCl2, 100 mM Tris-HCl pH 8.0, 150 mM NaCl, 50°C; apparent; overall two-step reduction; SDR1 site (second step, MSA to 3-HP)
T10 construct: gene Rcas_2929; full length Met1-Val1229, C-terminal His6 tag (pET20b), E. coli BL21(DE3); homodimer ~270 kDa
T10 sequence (A7NN59 entry or part of it T165A): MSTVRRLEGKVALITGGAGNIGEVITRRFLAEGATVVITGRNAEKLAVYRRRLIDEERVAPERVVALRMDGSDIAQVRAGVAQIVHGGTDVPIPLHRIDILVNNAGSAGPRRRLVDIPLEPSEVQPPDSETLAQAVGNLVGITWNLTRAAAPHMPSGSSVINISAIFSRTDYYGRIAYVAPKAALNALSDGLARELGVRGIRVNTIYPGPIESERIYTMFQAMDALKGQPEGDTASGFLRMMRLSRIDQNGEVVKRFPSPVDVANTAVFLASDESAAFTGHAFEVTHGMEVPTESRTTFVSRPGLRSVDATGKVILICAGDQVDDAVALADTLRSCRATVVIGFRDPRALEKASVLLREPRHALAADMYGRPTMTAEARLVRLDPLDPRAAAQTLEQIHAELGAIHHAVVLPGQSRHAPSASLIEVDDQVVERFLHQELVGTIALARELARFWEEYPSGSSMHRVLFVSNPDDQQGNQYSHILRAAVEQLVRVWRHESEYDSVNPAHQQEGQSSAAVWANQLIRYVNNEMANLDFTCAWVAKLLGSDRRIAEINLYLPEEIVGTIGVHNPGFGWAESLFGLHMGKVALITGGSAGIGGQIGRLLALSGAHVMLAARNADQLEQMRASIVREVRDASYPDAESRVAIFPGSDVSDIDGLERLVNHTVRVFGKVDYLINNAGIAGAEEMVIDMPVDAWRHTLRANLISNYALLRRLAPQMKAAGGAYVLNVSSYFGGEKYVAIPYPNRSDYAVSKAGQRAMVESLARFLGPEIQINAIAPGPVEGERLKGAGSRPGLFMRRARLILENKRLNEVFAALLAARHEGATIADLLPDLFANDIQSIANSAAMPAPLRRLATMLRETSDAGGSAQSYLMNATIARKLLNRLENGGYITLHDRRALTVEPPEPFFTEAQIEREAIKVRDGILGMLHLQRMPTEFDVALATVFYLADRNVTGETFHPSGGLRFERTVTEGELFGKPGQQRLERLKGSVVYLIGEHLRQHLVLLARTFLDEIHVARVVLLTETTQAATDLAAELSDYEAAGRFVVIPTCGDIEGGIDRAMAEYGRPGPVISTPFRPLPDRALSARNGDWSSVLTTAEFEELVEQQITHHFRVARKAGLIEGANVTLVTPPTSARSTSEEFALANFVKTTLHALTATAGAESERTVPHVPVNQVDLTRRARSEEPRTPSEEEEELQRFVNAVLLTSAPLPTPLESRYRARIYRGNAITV

RfxMCR-C = target: T11, RfxMCR-C (Roseiflexus castenholzii, UniProt A7NN59); assay: X-ray crystal structure, […] Å; format: binding; conditions: ternary complex with NADP+; SDR3 / ED interface; MSA not added, modelled in density
T11 construct: gene Rcas_2929; C-terminal fragment Gly573-Val1229 (SDR3-ED-SDR4), N-terminal His6 tag (pET28a), E. coli BL21(DE3)

RfxMCR-N = target: T12, RfxMCR-N (Roseiflexus castenholzii, UniProt A7NN59); assay: X-ray crystal structure, […] Å; format: binding; conditions: ternary complex with NADP+; SDR1 site; MSA not added, modelled in extra density; crystals grown in 1 M sodium malonate pH 5.0
T12 construct: gene Rcas_2929; N-terminal fragment Met1-Phe572 (SDR1-SDR2), C-terminal His6 tag (pET28a), E. coli BL21(DE3)

[11] = target: the molecule itself; assay: crystal structure; RfxMCR-N with NADP+ and MSA; 1 M sodium malonate pH 5.0, 0.1 M sodium acetate pH 4.5, 3% PEG 20,000, 16°C; P6(5)22, one monomer in the asymmetric unit, dimer by crystal packing; 2.0 Å

CC(C)(COP(=O)(O)OP(=O)(O)OC[C@H]1O[C@@H](n2cnc3c(N)ncnc32)[C@H](O)[C@@H]1OP(=O)(O)O)[C@@H](O)C(=O)NCCC(=O)NCCSC(=O)CC(=O)O [malonyl-CoA]
overall enzymatic activity (full-length RfxMCR [1]): Ser731, Tyr749, Lys753, and Arg799 completely eliminated enzymatic activity
overall enzymatic activity (full-length RfxMCR [2]): Ser731, Tyr749, Lys753, and Arg799 completely eliminated enzymatic activity
overall enzymatic activity (full-length RfxMCR [3]): Ser731, Tyr749, Lys753, and Arg799 completely eliminated enzymatic activity
overall enzymatic activity (full-length RfxMCR [4]): Site-directed mutation of Thr165, Tyr172, Arg175, Tyr178, and Lys182 to Ala residues
overall enzymatic activity (full-length RfxMCR [5]): Ser731, Tyr749, Lys753, and Arg799 completely eliminated enzymatic activity
overall enzymatic activity (full-length RfxMCR [6]): mutagenesis of Arg746, Arg785, and Leu795
overall enzymatic activity (full-length RfxMCR [7]): mutagenesis of Arg746, Arg785, and Leu795
overall enzymatic activity (full-length RfxMCR [8]): mutagenesis of Arg746, Arg785, and Leu795
overall enzymatic activity (full-length RfxMCR [9]): Site-directed mutation of Thr165, Tyr172, Arg175, Tyr178, and Lys182 to Ala residues
overall enzymatic activity (full-length RfxMCR [10]): Site-directed mutation of Thr165, Tyr172, Arg175, Tyr178, and Lys182 to Ala residues

O=CCC(=O)O [malonate semialdehyde]
X-ray crystal structure, 2.3 Å (RfxMCR-C): a cofactor NADP^+ and intermediate MSA were resolved at the interface between the SDR3
X-ray crystal structure, 2.0 Å (RfxMCR-N): extra electron density that precisely matched the reduction intermediate MSA

B1: RfxMCR-N (Met1-Phe572) (domain or fragment, Roseiflexus castenholzii DSM 13941, UniProt A7NN59 1-572, looked up)
chain: MSTVRRLEGKVALITGGAGNIGEVITRRFLAEGATVVITGRNAEKLAVYRRRLIDEERVAPERVVALRMDGSDIAQVRAGVAQIVHGGTDVPIPLHRIDILVNNAGSAGPRRRLVDIPLEPSEVQPPDSETLAQAVGNLVGITWNLTRAAAPHMPSGSSVINISTIFSRTDYYGRIAYVAPKAALNALSDGLARELGVRGIRVNTIYPGPIESERIYTMFQAMDALKGQPEGDTASGFLRMMRLSRIDQNGEVVKRFPSPVDVANTAVFLASDESAAFTGHAFEVTHGMEVPTESRTTFVSRPGLRSVDATGKVILICAGDQVDDAVALADTLRSCRATVVIGFRDPRALEKASVLLREPRHALAADMYGRPTMTAEARLVRLDPLDPRAAAQTLEQIHAELGAIHHAVVLPGQSRHAPSASLIEVDDQVVERFLHQELVGTIALARELARFWEEYPSGSSMHRVLFVSNPDDQQGNQYSHILRAAVEQLVRVWRHESEYDSVNPAHQQEGQSSAAVWANQLIRYVNNEMANLDFTCAWVAKLLGSDRRIAEINLYLPEEIVGTIGVHNPGF
notes: malonyl-CoA reductase (MCR) of Roseiflexus castenholzii DSM 13941, gene Rcas_2929, residues Met1-Phe572 (SDR1 and SDR2 domains); Cloned into pET28a at XhoI and NcoI; also called N-terminal fragment; SDR1-SDR2
stoichiometry N [11]: 2
